Test system: HCV genotype 1b replicon in Huh 7 cells
Test: HCV replicon assay (1b_Huh-Luc/Neo-ET cell line, luciferase readout)
Type: cell-based
Conditions: Hepatitis C virus, Huh-7; HCV 1b replicon; read-out: Inhibition of HCV genotype 1b
In short: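 Huh 7 cells carrying a bicistronic genotype 1b luciferase replicon were treated with compound in triplicate the day after plating and incubated 72 h. Luciferase activity expressed as % of untreated control; EC50 from a four-parameter logistic fit, repeated several times.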

Row | SMILES | EC50 [nM]
1 | COC(=O)N[C@H](C(=O)N1CCC[C@H]1C(=O)N[C@@H](C)c1ccc(-c2ccc3cc(-c4cnc([C@@H]5CCCN5C(=O)[C@@H](NC(=O)OC)[C@@H](C)OC)[nH]4)ccc3c2)cc1)[C@@H](C)OC [compound 558] | < 1
2 | COC(=O)N[C@H](C(=O)N1CCC[C@H]1C(=O)N[C@@H](C)c1ccc(-c2ccc3cc(-c4cnc([C@@H]5CCCN5C(=O)[C@@H](NC(=O)OC)C5CCOCC5)[nH]4)ccc3c2)cc1)C1CCOCC1 [compound 559] | < 1
3 | COC(=O)N[C@@H](C)C(=O)N1CCC[C@H]1C(=O)N[C@H](C)c1ccc(-c2ccc3cc(-c4cnc([C@@H]5CCCN5C(=O)[C@H](C)NC(=O)OC)[nH]4)ccc3c2)cc1 [compound 560] | 10 to 999
4 | COC(=O)N[C@H](C(=O)N1CCC[C@H]1C(=O)N[C@H](C)c1ccc(-c2ccc3cc(-c4cnc([C@@H]5CCCN5C(=O)[C@@H](NC(=O)OC)C(C)C)[nH]4)ccc3c2)cc1)C(C)C [compound 561] | 10 to 999
5 | COC(=O)N[C@H](C(=O)N1CCC[C@H]1C(=O)N[C@H](C)c1ccc(-c2ccc3cc(-c4cnc([C@@H]5CCCN5C(=O)[C@@H](NC(=O)OC)[C@@H](C)OC)[nH]4)ccc3c2)cc1)[C@@H](C)OC [compound 562] | 10 to 999
6 | COC(=O)N[C@H](C(=O)N1CCC[C@H]1C(=O)N[C@H](C)c1ccc(-c2ccc3cc(-c4cnc([C@@H]5CCCN5C(=O)[C@@H](NC(=O)OC)C5CCOCC5)[nH]4)ccc3c2)cc1)C1CCOCC1 [compound 563] | 1 to 9.9
7 | COC(=O)N[C@@H](C)C(=O)N1CCC[C@H]1CNC(=O)c1ccc(-c2ccc3cc(-c4cnc([C@@H]5CCCN5C(=O)[C@H](C)NC(=O)OC)[nH]4)ccc3c2)cc1 [compound 564] | 10 to 999
8 | COC(=O)N[C@H](C(=O)N1CCC[C@H]1CNC(=O)c1ccc(-c2ccc3cc(-c4cnc([C@@H]5CCCN5C(=O)[C@@H](NC(=O)OC)C(C)C)[nH]4)ccc3c2)cc1)C(C)C [compound 565] | < 1
9 | COC(=O)N[C@@H](C)C(=O)N1CCC[C@H]1C(=O)NCc1ccc(-c2ccc3cc(-c4cnc([C@@H]5CCCN5C(=O)[C@H](C)NC(=O)OC)[nH]4)ccc3c2)cc1 [compound 566] | 10 to 999
10 | COC(=O)N[C@H](C(=O)N1CCC[C@H]1C(=O)NCc1ccc(-c2ccc3cc(-c4cnc([C@@H]5CCCN5C(=O)[C@@H](NC(=O)OC)C(C)C)[nH]4)ccc3c2)cc1)C(C)C [compound 567] | 10 to 999
11 | COC(=O)N[C@H](C(=O)N1CCC[C@H]1C(=O)NCc1ccc(-c2ccc3cc(-c4cnc([C@@H]5CCCN5C(=O)[C@@H](NC(=O)OC)[C@@H](C)OC)[nH]4)ccc3c2)cc1)[C@@H](C)OC [compound 568] | 10 to 999
12 | COC(=O)N[C@H](C(=O)N1CCC[C@H]1C(=O)NCc1ccc(-c2ccc3cc(-c4cnc([C@@H]5CCCN5C(=O)[C@@H](NC(=O)OC)C5CCOCC5)[nH]4)ccc3c2)cc1)C1CCOCC1 [compound 569] | < 1
13 | COC(=O)N[C@@H](C)C(=O)N1CCC[C@H]1C(=O)Nc1ccc(-c2ccc3cc(-c4cnc([C@@H]5CCCN5C(=O)[C@H](C)NC(=O)OC)[nH]4)ccc3c2)cc1 [compound 570] | 1 to 9.9
14 | COC(=O)N[C@H](C(=O)N1CCC[C@H]1C(=O)Nc1ccc(-c2ccc3cc(-c4cnc([C@@H]5CCCN5C(=O)[C@@H](NC(=O)OC)C(C)C)[nH]4)ccc3c2)cc1)C(C)C [compound 571] | < 1
15 | COC(=O)N[C@H](C(=O)N1CCC[C@H]1CNC(=O)c1ccc(-c2ccc3cc(-c4cnc([C@@H]5CCCN5C(=O)[C@@H](NC(=O)OC)[C@@H](C)OC)[nH]4)ccc3c2)cc1)[C@@H](C)OC [compound 572] | < 1
16 | COC(=O)N[C@H](C(=O)N1CCC[C@H]1CNC(=O)c1ccc(-c2ccc3cc(-c4cnc([C@@H]5CCCN5C(=O)[C@@H](NC(=O)OC)C5CCOCC5)[nH]4)ccc3c2)cc1)C1CCOCC1 [compound 573] | < 1
17 | COC(=O)N[C@H](C(=O)N1CCC[C@H]1CNC(=O)c1ccc2cc(-c3ccc(-c4cnc([C@@H]5CCCN5C(=O)[C@@H](NC(=O)OC)C(C)C)[nH]4)cc3)ccc2c1)C(C)C [compound 574] | < 1

From patent US8877707B2, “Inhibitors of HCV NS5A” (Presidio Pharmaceuticals, Inc., priority 2010, dated 2014)
